The values below come from patent publication US11260241B2, “Method of treating multiple sclerosis” (Wisconsin Alumni Research Foundation, priority 2010, dated 2022).

Each structure is given as a SMILES string. Marks after values point to notes of the source that are not given here.

Holding throughout (format): in vivo, C57BL/6 mice
In data set [1] the test system is EAE. As to the kind of experiment: EAE model of MS induced with MOG35-55, daily clinical scoring. The note with it: for Incidence: from 10 days before immunization, 25 days monitoring; for CDI / Day of Onset / Peak Severity: mean ± SD; for Peak Severity: score scale 0-5.
Data set [2] can be described thus: Body weight monitoring (weight loss and toxicity). The protocol:
Beginning 10 days prior to immunization, mice were fed a purified 0.87% calcium diet delivering the indicated doses of either 25(OH)D3 or 1,25(OH)2D3. Treatment continued for the duration of the experiment. (A) Average clinical EAE scores were determined daily for vehicle, 25(OH)D3, and 1,25(OH)2D3-treated mice (n=15-17). (B) Mice were weighed weekly (±SD) throughout the study to monitor weight loss and toxicity. (C) Serum calcium levels (±SD) were determined at the end of the experiment using a clinical chemistry analyzer. (D) Serum 25(OH)D3 levels (±SD) were determined at the termination of the experiment. *P<0.05 compared to control group. Vitamin D toxicity is known to cause weight loss and a dramatic rise in serum calcium levels. To assess the effect of UV treatment on these parameters, mice were weighed at selected time intervals throughout the study, and serum calcium levels were determined at the termination of the experiment. […] Furthermore, there were no detected difference in serum calcium levels at either the end of the UVB-pretreatment period (data not shown) or at the termination of the experiment (FIG. 1C). In addition, serum 25(OH)D3 levels were determined both at the end of the UVB-pretreatment period and at the termination of the experiment. […] Corresponding levels of the 5.0 kJ/m^2 group remained elevated at the termination of the experiment.

Data set [3] in a line: Analysis of serum 25(OH)D3 levels (125I-radioimmunological assay). The note with it: dietary administration 10, 500, 1000 μg/kg per day; termination of the experiment. As for the experimental part:
Blood samples were collected at selected time points throughout the experiment. Red blood cells were removed through two successive centrifugation steps as described above. Serum 25(OH)D3 levels were determined using a ^125I-radioimmunological assay following the manufacturer's instructions (DiaSorin, Stillwater, Minn.). Samples above the range of the standard curve were diluted prior to analysis. Radioactivity was quantified using a Cobra 5002 gamma scintillation counter (PerkinElmer, Shelton, Conn.).

Data set [4] is described as follows: Analysis of serum calcium levels. As to conditions: end of experiment, vehicle 10.1 mg/dl. The protocol:
Blood samples were collected at the termination of the experiments and spun at 6000 rpm (2938 g) for 15 min, followed by a second spin at 14000 rpm (16883 g) for 1 min. Serum calcium levels were determined using the calcium L3K reagent (Genzyme Diagnostics, Charlottetown, PE Canada) and the ABX Pentra 400 clinical chemistry analyzer (Horiba-ABX Diagnostics, Irvine, Calif.).

[5] abbreviates: 2.5 μg/kg per day in purified diet.
The mark [6] stands for this setting: 10 μg/kg per day in purified diet.
Setting [7] is: 500 μg/kg per day in purified diet.
[8] abbreviates: 1000 μg/kg per day in purified diet.

On to `C=C1/C(=C\C=C2/CCC[C@]3(C)[C@@H]([C@H](C)CCCC(C)(C)O)CC[C@@H]23)C[C@@H](O)C[C@@H]1O` [1,25(OH)2D3, 1α,25-dihydroxyvitamin D3], for which the “Induction of EAE” value in data set [1] (2.5 μg/kg per day) was “prevented the induction of EAE”. Further, in data set [1] (setting [5]), the Incidence is listed as 35% (6/17)†, the CDI worked out at 4 ± 7, the “Day of Onset” value is 20 ± 3 and the “Peak Severity” value is 2.3 ± 0.6. In addition, the “Clinical signs of EAE” value in data set [1] (pilot studies, 2.5 μg/kg per day (data not shown)) was “dramatic suppression”. In addition, the “Weight of the mice at the termination of the study” value in data set [2] (mouse, in vivo) is on record as “significant decrease”.

For `C=C1CC[C@H](O)C/C1=C/C=C1\CCC[C@]2(C)[C@@H]([C@H](C)CCCC(C)(C)O)CC[C@@H]12` [25(OH)D3, 25-hydroxyvitamin D3], the “Effect on incidence, onset, severity, or progression of EAE” value in data set [1] (10 μg/kg per day) is on record as “no significant effect”. Further, the Incidence in data set [1] (setting [6]) was 88% (15/17); in data set [1] (setting [7]), 82% (14/17); in data set [1] (setting [8]), 82% (14/17). Moreover, the CDI in data set [1] (setting [6]) was found to be 23 ± 16; in data set [1] (setting [7]), 19 ± 12; in data set [1] (setting [8]), 17 ± 11. The “Day of Onset” value in data set [1] (setting [6]) was 14 ± 3; in data set [1] (setting [7]) it was 16 ± 4; in data set [1] (setting [8]), 16 ± 3. Further, the “Peak Severity” value in data set [1] (setting [6]) is recorded as 2.9 ± 0.9; in data set [1] (setting [7]) it was 2.7 ± 0.6; in data set [1] (setting [8]), 2.6 ± 0.6. Also, the “Clinical EAE scores” value in data set [1] (500 μg/kg per day) is recorded as “slight suppression”. In addition, the “Suppression of EAE” value in data set [1] (1000 μg/kg per day) was “modest suppression”. For the same molecule, the “Serum 25(OH)D3 levels” value in data set [3] is on record as “dose-dependent increase”. For the same molecule, the values for the Serum calcium levels in data set [4] (10 μg/kg per day in diet), in data set [4] (500 μg/kg per day in diet) and in data set [4] (1000 μg/kg per day in diet) were 9.9 mg/dL, 12.9 mg/dL and 14.2 mg/dL, respectively. Moreover, the “Weight of the mice at the termination of the study” value in data set [2] (1000 μg/kg per day in diet) is recorded as “significant decrease”.
